The assay concerns the target T1, Caspase-1 (Homo sapiens, UniProt P29466).
T1 sequence (P29466 whole entry): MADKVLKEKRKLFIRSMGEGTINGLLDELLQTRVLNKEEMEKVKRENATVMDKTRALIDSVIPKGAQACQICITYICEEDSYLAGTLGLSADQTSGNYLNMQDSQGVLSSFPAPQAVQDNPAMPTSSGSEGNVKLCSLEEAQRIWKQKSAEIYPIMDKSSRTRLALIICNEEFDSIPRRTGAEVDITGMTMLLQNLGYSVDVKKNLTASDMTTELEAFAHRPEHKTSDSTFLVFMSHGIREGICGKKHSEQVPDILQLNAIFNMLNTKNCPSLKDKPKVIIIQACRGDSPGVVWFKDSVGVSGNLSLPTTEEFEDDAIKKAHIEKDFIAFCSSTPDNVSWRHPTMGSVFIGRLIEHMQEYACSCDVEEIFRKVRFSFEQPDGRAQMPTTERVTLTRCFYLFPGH
As to the kind of experiment: Binding affinity towards IL-1 beta converting enzyme (ICE).

The structures appear in SMILES notation. Square brackets hold non-standard residues; d marks the D form. Peptide text beside a SMILES is read from it. βAla = NCCC(=O)O

Broadly, the Ki is a measure of affinity in units of concentration, obtained from inhibition or displacement. With `CC(=O)N[C@@H](Cc1ccc(O)cc1)C(=O)N[C@H](C(=O)N[C@@H](C)C(=O)N[C@H](C=O)CC(=O)O)C(C)C`, the inhibition constant Ki was 6 nM.

For the compound `CC(=O)N[C@@H](Cc1cc(I)c(O)c(I)c1)C(=O)N[C@H](C(=O)N[C@@H](C)C(=O)N[C@H](C=O)CC(=O)O)C(C)C`, the affinity corresponds to a Ki of 7.5 nM.

For `CC(C)[C@H](NC(=O)CC(Cl)Cl)C(=O)N[C@@H](C)C(=O)N[C@H](C=O)CC(=O)O`, the Ki was 28 nM. This Ki is about 3.7-fold higher than that of the compound before.

The compound `CC(=O)N[C@@H](Cc1ccc(O)cc1)C(=O)N[C@H](C(=O)N[C@@H](C)C(=O)N(C)[C@H](C=O)CC(=O)O)C(C)C` showed an inhibition constant (Ki) above 20000 nM.

In turn, `CC(=O)N[C@@H](Cc1ccc(O)cc1)C(=O)N(C)[C@H](C(=O)N[C@@H](C)C(=O)N[C@H](C=O)CC(=O)O)C(C)C` came in with an inhibition constant (Ki) of 50000 nM.

Take `CC(=O)N(C)[C@@H](Cc1ccc(O)cc1)C(=O)N[C@H](C(=O)N[C@@H](C)C(=O)N[C@H](C=O)CC(=O)O)C(C)C`: affinity was put at a Ki of 120 nM. Against the preceding compound, the Ki is about 420-fold lower.

In the case of `CC(=O)N[C@@H](Cc1ccc(O)cc1)C(=O)N[C@H](C(=O)N(C)[C@@H](C)C(=O)N[C@H](C=O)CC(=O)O)C(C)C`, the affinity corresponds to a Ki of 59 nM.

Turning to `CC(=O)N[C@@H](Cc1ccc(O)cc1)C(=O)N[C@H](C(=O)N[C@@H](C)C(=O)N[C@@H]1COC(=O)C1)C(C)C`, the inhibitory constant (Ki) is above 20000 nM.

As to `CC(=O)N[C@@H](Cc1ccc(O)cc1)C(=O)N[C@H](C(=O)N[C@@H](C)C(=O)N[C@H](/C=N\NC(N)=O)CC(=O)O)C(C)C`, affinity was put at a Ki of 500 nM.

In turn, `CC(=O)N[C@@H](Cc1ccc(O)cc1)C(=O)N[C@H](C(=O)N[C@@H](C)C(=O)N[C@@H]1CNC(=O)C1)C(C)C` had a Ki above 20000 nM.

Consider `CC(=O)N[C@@H](C)C(=O)N[C@H](C=O)CC(=O)O` (Ac-Ala-Asp-aldehyde), for which the inhibition constant (Ki) was above 20000 nM.

For the compound `CC(=O)N[C@@H](Cc1ccccc1)C(=O)N[C@H](C(=O)N[C@@H](C)C(=O)N[C@H](C=O)CC(=O)O)C(C)C` (Ac-FVAD-aldehyde), the affinity corresponds to a Ki of 42 nM.

As for `CC(=O)N[C@@H](Cc1ccc(O)cc1)C(=O)N[C@@H](C)C(=O)N[C@H](C=O)CC(=O)O` (Ac-Tyr-Ala-Asp-aldehyde), the affinity corresponds to a Ki of 2100 nM. This Ki lies about 50-fold higher than the previous one.

In the case of `CC(=O)N[C@@H](Cc1ccc(O)cc1)C(=O)N[C@H](C=O)CC(=O)O` (Ac-Tyr-Asp-aldehyde), the Ki is above 20000 nM.

In the case of `CC(=O)N[C@@H](Cc1ccc(O)cc1)C(=O)N[C@H](C(=O)N[C@H](C=O)CC(=O)O)C(C)C` (Ac-Tyr-Val-Asp-aldehyde), the affinity, expressed as Ki, was 2400 nM.

In the case of `CC(=O)N[C@H](C(=O)N[C@@H](C)C(=O)N[C@H](C=O)CC(=O)O)C(C)C` (Ac-Val-Ala-Asp-aldehyde), the inhibition constant Ki came out at 1700 nM.

Compound `CC(=O)N[C@@H](Cc1ccc(O)cc1)C(=O)N[C@H](C(=O)N[C@@H](C)C(=O)NCCC(=O)O)C(C)C` (Ac-YVA[βAla]-OH) came in with a Ki above 20000 nM.
